Consider 33 compounds from ChEMBL document CHEMBL1144370, “3-Acyl-2,6-diaminopyridines as cyclin-dependent kinase inhibitors: synthesis and biological evaluation” (Bioorg Med Chem Lett, 2005).

Test [1] in a line: In vitro inhibitory concentration against cyclin-dependent kinase 1. Further details: species or system Homo sapiens.
The target of test [2] is Epidermal growth factor receptor (Homo sapiens, UniProt P00533). Kind of test: In vitro inhibitory concentration against epidermal growth factor receptor.
Chain of Epidermal growth factor receptor (P00533 whole entry): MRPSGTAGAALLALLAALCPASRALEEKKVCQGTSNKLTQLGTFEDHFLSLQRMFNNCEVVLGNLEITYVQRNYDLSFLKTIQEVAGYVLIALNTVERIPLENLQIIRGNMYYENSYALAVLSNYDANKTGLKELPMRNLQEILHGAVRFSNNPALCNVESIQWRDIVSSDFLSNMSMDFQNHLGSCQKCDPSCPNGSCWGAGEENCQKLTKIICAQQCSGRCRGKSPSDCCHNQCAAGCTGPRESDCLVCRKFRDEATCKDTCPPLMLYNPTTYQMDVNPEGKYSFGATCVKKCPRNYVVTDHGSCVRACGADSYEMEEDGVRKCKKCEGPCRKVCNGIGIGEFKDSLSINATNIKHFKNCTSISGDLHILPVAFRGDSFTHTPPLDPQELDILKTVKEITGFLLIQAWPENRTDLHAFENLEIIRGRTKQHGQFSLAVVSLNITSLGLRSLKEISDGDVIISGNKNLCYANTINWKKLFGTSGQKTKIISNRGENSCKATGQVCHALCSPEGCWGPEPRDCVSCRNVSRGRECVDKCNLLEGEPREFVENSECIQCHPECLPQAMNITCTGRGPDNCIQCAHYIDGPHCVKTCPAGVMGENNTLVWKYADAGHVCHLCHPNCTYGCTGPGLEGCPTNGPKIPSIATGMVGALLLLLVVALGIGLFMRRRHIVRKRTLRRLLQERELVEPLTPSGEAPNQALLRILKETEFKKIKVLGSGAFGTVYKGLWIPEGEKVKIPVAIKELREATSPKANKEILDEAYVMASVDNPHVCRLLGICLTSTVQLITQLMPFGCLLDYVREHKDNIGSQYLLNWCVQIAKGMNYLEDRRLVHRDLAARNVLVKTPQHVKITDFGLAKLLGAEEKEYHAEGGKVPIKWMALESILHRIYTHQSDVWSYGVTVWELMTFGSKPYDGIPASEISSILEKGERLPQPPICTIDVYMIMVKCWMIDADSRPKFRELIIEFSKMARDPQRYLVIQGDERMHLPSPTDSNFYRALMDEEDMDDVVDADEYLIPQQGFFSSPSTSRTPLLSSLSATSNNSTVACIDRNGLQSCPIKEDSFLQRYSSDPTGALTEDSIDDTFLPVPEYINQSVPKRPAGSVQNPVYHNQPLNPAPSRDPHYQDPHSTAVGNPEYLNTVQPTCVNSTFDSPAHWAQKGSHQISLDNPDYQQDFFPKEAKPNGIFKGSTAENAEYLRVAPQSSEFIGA
The target in test [3] is Receptor tyrosine-protein kinase erbB-2 (Homo sapiens, UniProt P04626). Kind of test: In vitro inhibitory concentration against HER2.
Chain of Receptor tyrosine-protein kinase erbB-2 (P04626 whole entry): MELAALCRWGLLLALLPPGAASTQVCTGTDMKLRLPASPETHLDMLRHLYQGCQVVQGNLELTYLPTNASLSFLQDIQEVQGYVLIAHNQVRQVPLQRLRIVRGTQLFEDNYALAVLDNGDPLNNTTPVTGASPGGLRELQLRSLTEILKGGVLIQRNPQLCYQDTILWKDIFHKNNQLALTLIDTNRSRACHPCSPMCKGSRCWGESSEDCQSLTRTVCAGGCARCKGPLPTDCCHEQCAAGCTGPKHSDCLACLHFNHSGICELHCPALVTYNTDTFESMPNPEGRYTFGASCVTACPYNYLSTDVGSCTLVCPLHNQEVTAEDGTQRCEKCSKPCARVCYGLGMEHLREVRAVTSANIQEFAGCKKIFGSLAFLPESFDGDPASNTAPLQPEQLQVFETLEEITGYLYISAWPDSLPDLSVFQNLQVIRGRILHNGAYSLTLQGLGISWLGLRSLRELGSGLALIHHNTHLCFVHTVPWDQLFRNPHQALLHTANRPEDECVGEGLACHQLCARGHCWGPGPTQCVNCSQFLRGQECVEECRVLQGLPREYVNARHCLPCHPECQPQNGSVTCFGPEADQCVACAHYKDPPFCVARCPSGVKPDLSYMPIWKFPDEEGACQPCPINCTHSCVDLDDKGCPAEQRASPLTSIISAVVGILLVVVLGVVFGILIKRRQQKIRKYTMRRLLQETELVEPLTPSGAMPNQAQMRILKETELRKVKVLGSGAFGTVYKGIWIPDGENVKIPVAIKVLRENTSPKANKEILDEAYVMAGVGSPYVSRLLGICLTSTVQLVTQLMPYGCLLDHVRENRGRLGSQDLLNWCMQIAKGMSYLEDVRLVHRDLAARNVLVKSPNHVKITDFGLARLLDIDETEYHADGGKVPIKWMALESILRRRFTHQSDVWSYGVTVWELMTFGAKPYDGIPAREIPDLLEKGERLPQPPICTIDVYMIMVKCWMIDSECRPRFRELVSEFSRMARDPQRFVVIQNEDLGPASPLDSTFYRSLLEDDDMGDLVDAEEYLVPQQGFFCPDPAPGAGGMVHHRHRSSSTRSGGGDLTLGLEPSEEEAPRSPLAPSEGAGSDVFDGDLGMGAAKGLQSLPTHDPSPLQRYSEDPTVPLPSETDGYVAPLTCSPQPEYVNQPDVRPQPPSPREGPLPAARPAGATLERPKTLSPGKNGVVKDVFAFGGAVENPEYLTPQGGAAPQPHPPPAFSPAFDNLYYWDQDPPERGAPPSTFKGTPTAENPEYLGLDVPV
The target of test [4] is Cyclin-dependent kinase 2 (Homo sapiens, UniProt P24941). Kind of test: In vitro inhibitory concentration against cyclin-dependent kinase 2.
In another test the test system is A-375. Kind of test: Compound tested for anti-proliferative activity against A375 cells. Conditions: Homo sapiens. The test is classed as functional, cell-based.
For another test, the system named is HeLa. Kind of test: Compound tested for anti-proliferative activity against HeLa cells. The test is classed as functional, cell-based. Conditions: Homo sapiens.
A further test relates to HCT-116. Kind of test: Compound tested for anti-proliferative activity against HCT116 cells. The format is functional, cell-based. Conditions: Homo sapiens.
For test [5], the target named is T1, Vascular endothelial growth factor receptor 2 (Homo sapiens, UniProt P35968). Kind of test: In vitro inhibitory concentration against vascular endothelial growth factor receptor 2.
T1 sequence (P35968 whole entry): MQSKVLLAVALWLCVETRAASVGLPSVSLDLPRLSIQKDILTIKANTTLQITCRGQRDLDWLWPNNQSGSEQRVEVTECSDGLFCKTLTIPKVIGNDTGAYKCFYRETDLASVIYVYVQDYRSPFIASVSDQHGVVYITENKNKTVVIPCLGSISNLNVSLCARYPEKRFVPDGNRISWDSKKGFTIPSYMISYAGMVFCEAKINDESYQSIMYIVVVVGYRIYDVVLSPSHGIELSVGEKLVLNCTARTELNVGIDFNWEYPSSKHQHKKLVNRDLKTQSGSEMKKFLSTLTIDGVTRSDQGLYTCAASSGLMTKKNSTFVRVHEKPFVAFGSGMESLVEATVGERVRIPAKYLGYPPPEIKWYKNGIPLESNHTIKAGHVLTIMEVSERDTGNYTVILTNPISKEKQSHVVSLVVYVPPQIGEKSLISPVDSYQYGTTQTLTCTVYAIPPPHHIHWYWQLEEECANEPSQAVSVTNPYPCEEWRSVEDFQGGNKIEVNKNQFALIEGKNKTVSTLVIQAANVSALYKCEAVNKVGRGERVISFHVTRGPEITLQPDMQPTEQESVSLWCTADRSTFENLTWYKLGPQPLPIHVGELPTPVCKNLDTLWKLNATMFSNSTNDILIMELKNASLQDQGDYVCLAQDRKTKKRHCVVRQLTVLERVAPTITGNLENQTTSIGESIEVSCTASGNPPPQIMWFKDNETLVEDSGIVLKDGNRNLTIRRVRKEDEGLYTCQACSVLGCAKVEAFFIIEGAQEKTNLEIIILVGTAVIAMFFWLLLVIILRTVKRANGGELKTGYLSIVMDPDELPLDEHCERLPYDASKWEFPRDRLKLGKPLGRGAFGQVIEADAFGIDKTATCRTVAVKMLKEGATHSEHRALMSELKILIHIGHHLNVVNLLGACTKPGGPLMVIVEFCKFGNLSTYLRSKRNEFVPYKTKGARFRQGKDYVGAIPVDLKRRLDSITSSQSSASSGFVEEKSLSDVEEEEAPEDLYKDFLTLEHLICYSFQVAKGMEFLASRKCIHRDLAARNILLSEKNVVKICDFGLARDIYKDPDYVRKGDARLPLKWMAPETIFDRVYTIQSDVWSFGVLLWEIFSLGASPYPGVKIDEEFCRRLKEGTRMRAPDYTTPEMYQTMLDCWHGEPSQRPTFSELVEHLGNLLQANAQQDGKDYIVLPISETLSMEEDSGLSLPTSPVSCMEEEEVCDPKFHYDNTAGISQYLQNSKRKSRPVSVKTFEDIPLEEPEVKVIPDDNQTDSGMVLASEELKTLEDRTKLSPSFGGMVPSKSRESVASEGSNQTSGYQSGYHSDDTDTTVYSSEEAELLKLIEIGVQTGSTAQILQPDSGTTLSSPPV
In test [6] the target is T1, Vascular endothelial growth factor receptor 2. Kind of test: In vitro inhibitory concentration against Vascular endothelial growth factor receptor 2.

On to `Nc1nc(Nc2cccc(Cl)c2)ccc1C(=O)c1c(F)cccc1F`, for which, in test [1], the midpoint of inhibition, the IC50, lay at 6.16 µM.

Turning to `Nc1nc(Nc2ccc(C(=O)O)cc2)ccc1C(=O)c1c(F)cccc1F`, in test [1], the IC50 was approximately 10 µM.

In turn, `CCCCOc1cc(Nc2ccc(S(=O)(=O)N(C)C)cc2)nc(N)c1C(=O)c1c(F)cccc1F` displayed an IC50 in [1] of 1 µM.

In turn, `N#Cc1ccc(Nc2ccc(C(=O)c3c(F)cccc3F)c(N)n2)cc1` gave a 50% inhibitory concentration (IC50) in [1] of 1.37 µM.

As for `Nc1ccc(C(=O)c2ccccc2F)c(N)n1`, the IC50 in test [1] came to 8.2 µM.

In [1], `CCCCOc1cc(N)nc(N)c1C(=O)c1c(F)cccc1F` returned an IC50 of 1.2 µM. Compared with the last compound, the IC50 is about 6.8-fold lower.

`CNc1ccc(Nc2ccc(C(=O)c3c(F)cccc3F)c(N)n2)cc1`: in test [1], half-maximal inhibition (IC50) was put at 1.14 µM.

`Nc1nc(Nc2ccccc2[N+](=O)[O-])ccc1C(=O)c1c(F)cccc1F` had an IC50 in test [1] of more than 10 µM.

Consider `Nc1ccc(Nc2ccc(C(=O)c3c(F)cccc3F)c(N)n2)cc1`, for which, in [1], the midpoint of inhibition, the IC50, lay at 0.75 µM.

In [1], `Nc1ccc(C(=O)c2cccs2)c(N)n1` came in with a half-maximal inhibitory concentration (IC50) of more than 100 µM.

For `Nc1ccc(C(=O)c2ccco2)c(N)n1`, the IC50 in test [1] was more than 100 µM.

With `CN(C)S(=O)(=O)c1ccc(Nc2ccc(C(=O)c3ccccc3F)c(N)n2)cc1`, inhibition in test [1] was half-maximal at 1.96 µM (IC50).

In test [1], `Nc1nc(Nc2ccccc2NS(=O)(=O)c2ccccc2)ccc1C(=O)c1c(F)cccc1F` displayed an IC50 of more than 100 µM.

In turn, `CC(=O)Nc1ccccc1Nc1ccc(C(=O)c2c(F)cccc2F)c(N)n1` had an IC50 in [1] of more than 100 µM.

`Nc1ccccc1Nc1ccc(C(=O)c2c(F)cccc2F)c(N)n1` displayed a 50% inhibitory concentration (IC50) in [1] of 11.6 µM. In other words, the double-digit micromolar range.

Turning to `CCN(CC)S(=O)(=O)c1ccc(Nc2ccc(C(=O)c3ccco3)c(N)n2)cc1`, in test [1], the IC50 is more than 100 µM.

With `CCN(CC)S(=O)(=O)c1ccc(Nc2ccc(C(=O)c3ccccc3)c(N)n2)cc1`, the 50% inhibitory concentration (IC50) in test [1] was more than 100 µM.

For the compound `CN(C)S(=O)(=O)c1ccc(Nc2ccc(C(=O)c3ccco3)c(N)n2)cc1`, the IC50 in test [1] was 10.6 µM.

Compound `Nc1nc(Nc2cccc([N+](=O)[O-])c2)ccc1C(=O)c1c(F)cccc1F` had a half-inhibitory concentration (IC50) in [1] of 2.67 µM.

Turning to `Nc1nc(Nc2ccc(NS(=O)(=O)c3ccccc3)cc2)ccc1C(=O)c1c(F)cccc1F`, the IC50 in test [1] was determined as 0.74 µM.

For the compound `Nc1nc(Nc2ccc(S(=O)(=O)N(Cc3ccccc3)Cc3ccccc3)cc2)ccc1C(=O)c1c(F)cccc1F`, the concentration for half-maximal inhibition (IC50) in test [1] was more than 10 µM.

Take `Nc1nc(Nc2ccccn2)ccc1C(=O)c1c(F)cccc1F`: the IC50 in test [1] worked out at 12.3 µM.

On to `CN(C)S(=O)(=O)c1ccc(Nc2ccc(C(=O)c3c(F)cccc3F)c(N)n2)cc1`, for which the IC50 in test [2] was more than 100 µM; in [3] it was more than 100 µM; in [1], 0.59 µM; in test [4], 0.5 µM; in the test with A-375 it was more than 10 µM; with HeLa it was more than 10 µM. For the same compound, the IC50 with HCT-116 is more than 10 µM; in [5] it was more than 100 µM.

`Nc1nc(Nc2ccccc2)ccc1C(=O)c1c(F)cccc1F` showed an IC50 in [1] of 21.7 µM.

`CN(C)S(=O)(=O)c1ccc(Nc2ccc(C(=O)c3cccs3)c(N)n2)cc1`: in test [1], the 50% inhibitory concentration (IC50) was 12.7 µM. This IC50 is about 1.7-fold lower than that of the compound before.

As to `CCCCOc1cc(Nc2ccc(S(N)(=O)=O)cc2)nc(N)c1C(=O)c1c(F)cccc1F`, the IC50 is more than 100 µM in [2]; more than 100 µM in test [3]; 0.26 µM in test [1]; 0.084 µM in [4]; 2.9 µM in the test with A-375; 10.7 µM in the test with HeLa. In addition, the IC50 in the test with HCT-116 was 6.7 µM; in [6] it was more than 100 µM.

For the compound `NC(=O)c1ccc(Nc2ccc(C(=O)c3c(F)cccc3F)c(N)n2)cc1`, the IC50 in test [1] turned out to be 0.95 µM.

Take `Nc1nc(Nc2ccc(S(N)(=O)=O)cc2)ccc1C(=O)c1c(F)cccc1F`: the half-maximal inhibitory concentration (IC50) was more than 100 µM in test [2]; more than 100 µM in [3]; 0.36 µM in test [1]; 0.18 µM in test [4]; 6.5 µM in the test on A-375; 17.2 µM with HeLa. Further, the 50% inhibitory concentration (IC50) is 16.5 µM with HCT-116 and more than 100 µM in test [6].

In turn, `CN(C)S(=O)(=O)c1ccc(Nc2ccc(C(=O)c3ccccc3)c(N)n2)cc1` yielded an IC50 in [1] of 2.19 µM.

In test [1], `Nc1ccc(C(=O)c2ccccc2)c(N)n1` yielded an IC50 of 1.1 µM.

Compound `Nc1ccc(C(=O)c2c(F)cccc2F)c(N)n1` displayed an IC50 in test [1] of 2.6 µM.

In turn, `Nc1nc(Nc2ccc([N+](=O)[O-])cc2)ccc1C(=O)c1c(F)cccc1F` yielded a 50% inhibitory concentration (IC50) in test [1] of 0.96 µM.

Compound `Nc1nc(Nc2ccccc2NC(=O)c2ccccc2)ccc1C(=O)c1c(F)cccc1F` had a half-maximal inhibitory concentration (IC50) in test [1] of more than 100 µM.

Broadly, the IC50 is the concentration that inhibits the measured activity by half. Lower therefore signals greater potency in that assay.
